Results from patent US9182409B2, “Mass spectrometry imaging method for detecting and quantifying a target molecule in a tissue sample” (priority 2011, dated 2015).

Test: Distribution and quantification of propranolol in whole-body mouse sections by MALDI mass spectrometry imaging
Type: in vivo
Details: 7.5 mg/kg intravenous, 20 minutes post-injection, sagittal whole-body section, TEC-normalized
Protocol: Male Swiss mice weighing 25-40 g (Charles River, France) were used.
The animals were sacrificed by CO2 asphyxiation at 20 minutes post-injection.
The samples (control and dosed tissue) were sectioned into 20 μm-thick layers using a CM1510S cryostat (Leica Microsystems, Nanterre, France) cooled at −26° C. The sections were then deposited on conductive ITO (indium tin oxide) slides (Bruker Daltonics, Bremen, Germany).
This matrix was prepared at a concentration of 40 mg/ml in methanol/0.1% TFA (1:1, v/v). The matrix solution was deposited using the SunCollect spraying system (SunChrome, Germany).
This range of dilutions extends from 10 pmol/μl to 0.02 pmol/μl and includes seven points.
The images were obtained using an AutoFlex Speed MALDI-TOF mass spectrometer (Bruker Daltonics, Bremen, Germany) equipped with a Smartbeam laser. The data was generated in positive reflectron mode. A total of 700 spectra were obtained for each spot with a 1000 Hz laser frequency and a 300×300 μm′ image spatial resolution on a mass range of 100 Da to 1000 Da. The FlexImaging version 2.1 software was used to reconstruct the images.

CC(C)NCC(O)COc1cccc2ccccc12 (stereo not shown) [propranolol, Propranolol]
total quantity of the target analyte in the brain: about 5 ng
